Data on 3 molecules can be found in article PMC4052326, “Alterporriol-Type Dimers from the Mangrove Endophytic Fungus, Alternaria sp. (SK11), and Their MptpB Inhibitions” (Marine Drugs, 2014).

In general, IC50 refers to the concentration that gives 50% inhibition. Higher therefore signals lower potency.

In the test the target is T1, Mycobacterium tuberculosis protein tyrosine phosphatase B (MptpB) (Mycobacterium tuberculosis, UniProt I6WXK4).
T1 construct: The full-length PTPB gene was amplified from genomic DNA of the Mtb H37Rv strain; His6 (N); made in house
T1 sequence (I6WXK4 whole entry, looked up): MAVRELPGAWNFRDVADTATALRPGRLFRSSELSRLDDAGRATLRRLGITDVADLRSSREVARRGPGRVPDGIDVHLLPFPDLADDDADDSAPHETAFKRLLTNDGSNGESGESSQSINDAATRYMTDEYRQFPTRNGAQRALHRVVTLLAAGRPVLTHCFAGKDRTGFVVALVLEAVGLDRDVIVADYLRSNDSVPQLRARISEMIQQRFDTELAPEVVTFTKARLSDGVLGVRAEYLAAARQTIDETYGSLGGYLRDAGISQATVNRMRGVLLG
Kind of test: biochemical. Type of test: biochemical. To be noted: for IC50: MptpB, substrate DiFMUP, average of two independent experiments, sodium orthovanadate as positive control.

In turn, `COc1cc(O)c2c(c1O)C(c1cc(O)c3c(c1O)C(=O)C1=C(CC(O)C(C)(O)C1)C3=O)C1CC(C)(O)C(O)C(O)C1C2=O` (stereo not shown) [Compound 1, alterporriol S] showed an IC50 of 64.7 µM. In turn, `COc1cc(O)c2c(c1)C(=O)c1cc(C)c(O)c(-c3c(OC)cc4c(c3O)C(=O)C3=C(C4=O)[C@@H](O)[C@](C)(O)[C@H](O)[C@H]3O)c1C2=O` [Compound 2, (+)-aS-alterporriol C] gave an IC50 of 8.7 µM. Further, the “inhibitory activity against MptpB” value (result in words) is reported as “strong inhibitory activity”. Consider `[Na+].[Na+].[Na+].[O]=[V]([O-])([O-])[O-]` [Control, sodium orthovanadate, reference compound], for which the concentration for half-maximal inhibition (IC50) came to 0.05 µM.
